Measured values reported in patent US9284333B2, “Fused pyrroledicarboxamides and their use as pharmaceuticals” (SANOFI, priority 2012, dated 2016).

biological target: Human TASK-1 channels (Homo sapiens (Human), UniProt O14649); assay: Determination of the activity on the TASK-1 channel in Xenopus oocytes (two-microelectrode voltage clamp); type: cell-based; details: compound concentration 5 μM
Method in brief: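 Xenopus oocytes were injected with human TASK-1 cRNA and recorded two days later by two-microelectrode voltage clamp, holding at −90 mV with 500 ms steps to 40 mV. Superfusion used ND96, pH 7.4, at room temperature, with rising compound concentrations; percentage inhibition of control current was fitted to a dose-response curve for IC50.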

Human TASK-1 channels, sequence (O14649 whole entry, the tested form may be a part): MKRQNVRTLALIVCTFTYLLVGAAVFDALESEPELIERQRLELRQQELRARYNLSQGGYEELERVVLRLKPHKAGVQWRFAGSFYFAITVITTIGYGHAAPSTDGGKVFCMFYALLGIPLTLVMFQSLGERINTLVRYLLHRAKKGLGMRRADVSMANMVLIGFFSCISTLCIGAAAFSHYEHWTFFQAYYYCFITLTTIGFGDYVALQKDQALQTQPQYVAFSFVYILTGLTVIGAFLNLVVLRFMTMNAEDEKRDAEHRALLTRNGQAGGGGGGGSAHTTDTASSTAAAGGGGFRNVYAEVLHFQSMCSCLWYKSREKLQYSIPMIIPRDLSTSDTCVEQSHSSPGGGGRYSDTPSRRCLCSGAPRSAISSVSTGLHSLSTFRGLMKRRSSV

SMILES	inhibition at 5 µM
CC[C@@H](NC(=O)c1cc(C(=O)N2CCCC2C(O)c2ccccc2)n2c1COCC2)c1ccccc1 (stereo partly drawn) [16fj, 6-[2-(Hydroxy-phenyl-methyl)-pyrrolidine-1-carbonyl]-3,4-dihydro-1H-pyrrolo[2,1-c][1,4]oxazine-8-carboxylic acid ((R)-1-phenyl-propyl)-amide]	89%
CC[C@@H](NC(=O)c1cc(C(=O)N2CCC[C@@H]2C)n2c1COCC2)c1ccc(C)cc1 [16be, 6-((S)-2-Methyl-pyrrolidine-1-carbonyl)-3,4-dihydro-1H-pyrrolo[2,1-c][1,4]oxazine-8-carboxylic acid ((R)-1-p-tolyl-propyl)-amide]	85%

same assay, conditions: human TASK-1 expressed in Xenopus oocytes, room temperature; read-out: IC50 value for TASK-1 inhibition

SMILES	IC50
CC[C@@H](NC(=O)c1cc(C(=O)Nc2cc(C(F)(F)F)ccc2Cl)c2n1CCOC2)c1ccccc1 [16jx, 3,4-Dihydro-1H-pyrrolo[2,1-c][1,4]oxazine-6,8-dicarboxylic acid 8-[(2-chloro-5-trifluoromethyl-phenyl)-amide] 6-[((R)-1-phenyl-propyl)-amide]]	220 nM
CC[C@@H](NC(=O)c1cc(C(=O)N2CCC[C@@H]2C(=O)OC(C)C)n2c1COCC2)c1ccccc1 [16n]	140 nM
CC[C@H](NC(=O)c1cc(C(=O)N[C@H](CC)c2ccccc2)c2n1CCOC2)c1ccccc1 [16hs, 3,4-Dihydro-1H-pyrrolo[2,1-c][1,4]oxazine-6,8-dicarboxylic acid 6-[((S)-1-phenyl-propyl)-amide] 8-[((R)-1-phenyl-propyl)-amide]]	100 nM
CC[C@@H](NC(=O)c1cc(C(=O)NCCc2ccc(F)cc2)n2c1CCCC2)c1ccccc1 [16mx, 5,6,7,8-Tetrahydro-indolizine-1,3-dicarboxylic acid 3-{[2-(4-fluoro-phenyl)-ethyl]-amide} 1-[((R)-1-phenyl-propyl)-amide]]	97 nM
CC[C@@H](NC(=O)c1cc(C(=O)N[C@H](CC)c2ncccn2)c2n1CCOC2)c1ccccc1 [16kd, 3,4-Dihydro-1H-pyrrolo[2,1-c][1,4]oxazine-6,8-dicarboxylic acid 6-[((R)-1-phenyl-propyl)-amide] 8-[((R)-1-pyrimidin-2-yl-propyl)-amide]]	140 nM
CC[C@@H](NC(=O)c1cc(C(=O)N2CCOCC2)n2c1CCCC2)c1ccccc1 [16nc, 3-(Morpholine-4-carbonyl)-5,6,7,8-tetrahydro-indolizine-1-carboxylic acid ((R)-1-phenyl-propyl)-amide]	2000 nM
CC[C@@H](NC(=O)c1cc(C(=O)N[C@H](C)c2cnccn2)c2n1CCOC2)c1ccc(F)cc1Cl [16kn, 3,4-Dihydro-1H-pyrrolo[2,1-c][1,4]oxazine-6,8-dicarboxylic acid 6-{[(R)-1-(2-chloro-4-fluoro-phenyl)-propyl]-amide} 8-[((R)-1-pyrazin-2-yl-ethyl)-amide]]	130 nM
CC[C@@H](NC(=O)c1cc(C(=O)N2CCC[C@@H]2C)n2c1COCC2)c1ccc(Cl)cc1 [16pg, 6-((S)-2-Methyl-pyrrolidine-1-carbonyl)-3,4-dihydro-1H-pyrrolo[2,1-c][1,4]oxazine-8-carboxylic acid [(R)-1-(4-chloro-phenyl)-propyl]-amide]	190 nM
CC[C@@H](NC(=O)c1cc(C(=O)N2CCC[C@@H]2C)n2c1COCC2)c1cnc(C(F)(F)F)cc1C(F)(F)F [16by, 6-((S)-2-Methyl-pyrrolidine-1-carbonyl)-3,4-dihydro-1H-pyrrolo[2,1-c][1,4]oxazine-8-carboxylic acid [(R)-1-(4,6-bis-trifluoromethyl-pyridin-3-yl)-propyl]-amide]	800 nM
CC[C@@H](NC(=O)c1cc(C(=O)NCc2cnccn2)c2n1CCOC2)c1ccc(F)cc1Cl [16ko, 3,4-Dihydro-1H-pyrrolo[2,1-c][1,4]oxazine-6,8-dicarboxylic acid 6-{[(R)-1-(2-chloro-4-fluoro-phenyl)-propyl]-amide} 8-[(pyrazin-2-ylmethyl)-amide]]	310 nM
CC[C@@H](NC(=O)c1cc(C(=O)N2CCC[C@@H]2C)n2c1COCC2)c1c(Cl)cncc1Cl [16bv, 6-((S)-2-Methyl-pyrrolidine-1-carbonyl)-3,4-dihydro-1H-pyrrolo[2,1-c][1,4]oxazine-8-carboxylic acid [(R)-1-(3,5-dichloro-pyridin-4-yl)-propyl]-amide]	140 nM
CC[C@@H](NC(=O)c1cc(C(=O)N2CCC[C@@H]2C)c2n1CSC2)c1ccccc1 [16kx, 7-((S)-2-Methyl-pyrrolidine-1-carbonyl)-1H-pyrrolo[1,2-c]thiazole-5-carboxylic acid ((R)-1-phenyl-propyl)-amide]	100 nM
CC[C@@H](NC(=O)c1cc(C(=O)N(C)[C@@H](C)C(=O)OC(C)C)n2c1COCC2)c1ccccc1 [16ja, (S)-2-{Methyl-[8-((R)-1-phenyl-propylcarbamoyl)-3,4-dihydro-1H-pyrrolo[2,1-c][1,4]oxazine-6-carbonyl]-amino}-propionic acid isopropyl ester]	100 nM
CC[C@@H](NC(=O)c1cc(C(=O)Nc2cnoc2)c2n1CCOC2)c1ccccc1 [16jv, 3,4-Dihydro-1H-pyrrolo[2,1-c][1,4]oxazine-6,8-dicarboxylic acid 8-isoxazol-4-ylamide 6-[((R)-1-phenyl-propyl)-amide]]	210 nM
CC[C@@H](NC(=O)c1cc(C(=O)N2CC[C@H](OCC(C)C)C2)n2c1COCC2)c1ccccc1 [16fg, 6-((S)-3-Isobutoxy-pyrrolidine-1-carbonyl)-3,4-dihydro-1H-pyrrolo[2,1-c][1,4]oxazine-8-carboxylic acid ((R)-1-phenyl-propyl)-amide]	1300 nM
CC[C@@H](NC(=O)c1cc(C(=O)N2CCCC2)n2c1COCC2)c1ccc(F)cc1F [16de]	49 nM
CC[C@@H](NC(=O)c1cc(C(=O)N2CCC[C@@H]2C)n2c1COCC2)c1ccc(C#N)cc1F [16ay, 6-((S)-2-Methyl-pyrrolidine-1-carbonyl)-3,4-dihydro-1H-pyrrolo[2,1-c][1,4]oxazine-8-carboxylic acid [(R)-1-(4-cyano-2-fluoro-phenyl)-propyl]-amide]	910 nM
CC[C@@H](NC(=O)c1cc(C(=O)N(C)CC(=O)OC(C)C)n2c1COCC2)c1ccccc1 [16iu, {Methyl-[8-((R)-1-phenyl-propylcarbamoyl)-3,4-dihydro-1H-pyrrolo[2,1-c][1,4]oxazine-6-carbonyl]-amino}-acetic acid isopropyl ester]	120 nM
CC[C@@H](NC(=O)c1cc(C(=O)NC(C)COC)n2c1COCC2)c1ccccc1 (stereo partly drawn) [16gg, 3,4-Dihydro-1H-pyrrolo[2,1-c][1,4]oxazine-6,8-dicarboxylic acid 6-[(2-methoxy-1-methyl-ethyl)-amide] 8-[((R)-1-phenyl-propyl)-amide]]	230 nM
CC[C@@H](NC(=O)c1cc(C(=O)N2CCC[C@@H]2C)n2c1CCCC2)c1ccc(C(F)(F)F)nc1 [16lw, 3-((S)-2-Methyl-pyrrolidine-1-carbonyl)-5,6,7,8-tetrahydro-indolizine-1-carboxylic acid [(R)-1-(6-trifluoromethyl-pyridin-3-yl)-propyl]-amide]	600 nM
O=C(N[C@H](c1ccc(F)cc1)C1CC1)c1cc(C(=O)N2CCCC2)n2c1COCC2 [16dh, 6-(Pyrrolidine-1-carbonyl)-3,4-dihydro-1H-pyrrolo[2,1-c][1,4]oxazine-8-carboxylic acid [(S)-cyclopropyl-(4-fluoro-phenyl)-methyl]-amide]	290 nM
CC[C@@H](NC(=O)c1cc(C(=O)N2CCCC2COC(F)(F)F)n2c1COCC2)c1ccccc1 (stereo partly drawn) [16en, 6-(2-Trifluoromethoxymethyl-pyrrolidine-1-carbonyl)-3,4-dihydro-1H-pyrrolo[2,1-c][1,4]oxazine-8-carboxylic acid ((R)-1-phenyl-propyl)-amide]	180 nM
CC[C@@H](NC(=O)c1cc(C(=O)N2CCC[C@@H]2C)c2n1CCOC2)c1ccccc1 [16ki, 8-((S)-2-Methyl-pyrrolidine-1-carbonyl)-3,4-dihydro-1H-pyrrolo[2,1-c][1,4]oxazine-6-carboxylic acid ((R)-1-phenyl-propyl)-amide]	200 nM
CC[C@@H](NC(=O)c1cc(C(=O)N[C@H](C)c2ccc(F)cc2)c2n1CCS2)c1ccccc1 [16ku, 2,3-Dihydro-pyrrolo[2,1-b]thiazole-5,7-dicarboxylic acid 7-{[(R)-1-(4-fluoro-phenyl)-ethyl]-amide} 5-[((R)-1-phenyl-propyl)-amide]]	87 nM
CCOC(=O)CN(C)C(=O)c1cc(C(=O)N[C@H](CC)c2ccccc2)c2n1CCOC2 [16iy, {Methyl-[8-((R)-1-phenyl-propylcarbamoyl)-3,4-dihydro-1H-pyrrolo[2,1-c][1,4]oxazine-6-carbonyl]-amino}-acetic acid ethyl ester]	270 nM
CC[C@@H](NC(=O)c1cc(C(=O)NC(C)c2ccno2)n2c1COCC2)c1ccccc1 (stereo partly drawn) [16hh, 3,4-Dihydro-1H-pyrrolo[2,1-c][1,4]oxazine-6,8-dicarboxylic acid 6-[(1-isoxazol-5-yl-ethyl)-amide] 8-[((R)-1-phenyl-propyl)-amide]]	1000 nM
CCO[C@H]1CCN(C(=O)c2cc(C(=O)N[C@H](CC)c3ccccc3)c3n2CCOC3)C1 [16es, 6-((S)-3-Ethoxy-pyrrolidine-1-carbonyl)-3,4-dihydro-1H-pyrrolo[2,1-c][1,4]oxazine-8-carboxylic acid ((R)-1-phenyl-propyl)-amide]	1800 nM
CC[C@@H](NC(=O)c1cc(C(=O)N2CCC[C@H]2C)n2c1COCC2)c1ccccc1 [16ej, 6-((R)-2-Methyl-pyrrolidine-1-carbonyl)-3,4-dihydro-1H-pyrrolo[2,1-c][1,4]oxazine-8-carboxylic acid ((R)-1-phenyl-propyl)-amide]	260 nM
CC[C@@H](NC(=O)c1cc(C(=O)N[C@H](CC)c2cccc(OC)n2)n2c1COCC2)c1ccc(C(F)(F)F)nc1 [16pb, 3,4-Dihydro-1H-pyrrolo[2,1-c][1,4]oxazine-6,8-dicarboxylic acid 6-{[(R)-1-(6-methoxy-pyridin-2-yl)-propyl]-amide} 8-{[(R)-1-(6-trifluoromethyl-pyridin-3-yl)-propyl]-amide}]	520 nM
